Data reported in patent publication US10342804B2, “Steroid compound for use in the treatment of hepatic encephalopathy” (Umecrine Cognition AB, priority 2014, dated 2019).

Legend:
Assay type in all cases: in vivo, rat
blood ammonia = assay: Blood ammonia, PCS rats (Example 12)
Experimental: Male Wistar rats (220-240 g) were anesthetized with isoflurane, and an end-to side porta-caval anastomosis was performed as described by Lee and Fisher (Surgery, 1961, 50, 668-672).
Rats that were subjected to the porta-caval anastomosis procedure are herein referred to as “PCS rats”.
(§1) 3α-ethynyl-3β-hydroxyandrostan-17-one oxime in sesame oil was administered by subcutaneous injections in the back of the rats, once daily. Two different sets of experiments were performed in hyperammonemic rats. In the first set four groups of rats were used: 1) control rats injected with vehicle; 2) hyperammonemic rats injected with vehicle; 3) control rats injected with 20 mg/Kg of 3α-ethynyl-3β-hydroxyandrostan-17-one oxime and 4) hyperammonemic rats injected with 20 mg/Kg of 3α-ethynyl-3β-hydroxyandrostan-17-one oxime.
For the experiments using PCS rats, the following groups of rats were used: 1) Sham rats injected with vehicle; 2) PCS rats injected with vehicle; 3-4) PCS rats injected with 0.7 or 2.5 mg/Kg of 3α-ethynyl-3β-hydroxyandrostan-17-one oxime. The number of rats used in each experiment is either shown in the corresponding Figure or given in the description of the corresponding Figure.
Blood ammonia was measured using the kit II Ammonia Arkray test (PocketChem BA, Arkray) using 20 μL of fresh blood following manufacturer's specifications.

hyperammonemic rats [1] = assay: Radial maze test, hyperammonemic rats (Example 10)
Experimental: (§2) Male Wistar rats (140-160 g) were made hyperammonemic by feeding them a diet containing ammonium acetate (30% by weight) (Felipo et al, European Journal of Biochemistry, 1988, 176, 567-571).
as §1
(§3) In the second set of experiments five groups of rats were used: 1) control rats injected with vehicle; 2) hyperammonemiac rats injected with vehicle and 3-5) hyperammonemic rats injected with 3, 10 or 20 mg/Kg of 3α-ethynyl-3β-hydroxyandrostan-17-one oxime. In each experiment 6-8 rats per group were used.
The apparatus was composed of a central area that gave access to eight equally-sized arms. The arms were 70 cm long and 10 cm wide and the central area was 30 cm in diameter. […] Rats were allowed to explore the maze for 10 minutes on two consecutive days in the presence of distal cues to adapt to the maze. Training in the radial maze was composed of three trials per day on six consecutive days. The task involved locating four pellets, each placed at the end of a different arm according to a random configuration as described by Hernandez-Rabaza et al. (Addiction Biology, 2010, 15, 413-423). The number of working memory errors (visits to arms already visited in the same trial) were recorded and expressed as working errors.

hyperammonemic rats [2] = assay: Spatial memory in the Morris water maze, chronic hyperammonemia model (Example 3); settings: 20 mg/kg s.c. once daily, 4th-5th week of treatment
From the text: In this study an animal model of chronic hyperammonemia was used that reproduces many of the cognitive and motor alterations present in hepatic encephalopathy. Rats were fed with ammonia in their food and after two weeks with ammonia enriched food they developed symptoms of hepatic encephalopathy. The beam walking test was made during the 3rd and 4th week of 3α-ethynyl-3β-hydroxyandrostan-17-one oxime treatment while the Morris Water maze test was made during 4th-5th week of 3α-ethynyl-3β-hydroxyandrostan-17-one oxime treatment and the Radial maze test was made during 6th-7th week of 3α-ethynyl-3β-hydroxyandrostan-17-one oxime treatment. […]
The test was carried out as follows; the first day was the pre-training day, rats were put in the water two times for 30 s only to adapt to water. […] The time, speed and path needed to find the hidden platform was recorded by a video tracking system provided by Viewpoint Company (Viewpoint 2.5, Champagne au Mont D′ Or, France) and used as a measure of learning of the task. After 15 training trial, the platform was removed from the pool, the rats were allowed to swim for 90 s in the pool and the time spent in the quadrant where the platform was positioned during training was recorded.

hyperammonemic rats [3] = assay: Motor coordination in the beam walking test, chronic hyperammonemia model (Example 4); settings: 20 mg/kg s.c. once daily, 3rd-4th week of treatment
From the text: In this study an animal model of chronic hyperammonemia was used that reproduces many of the cognitive and motor alterations present in hepatic encephalopathy. Rats were fed with ammonia in their food and after two weeks with ammonia enriched food they developed symptoms of hepatic encephalopathy. The beam walking test was made during the 3rd and 4th week of 3α-ethynyl-3β-hydroxyandrostan-17-one oxime treatment while the Morris Water maze test was made during 4th-5th week of 3α-ethynyl-3β-hydroxyandrostan-17-one oxime treatment and the Radial maze test was made during 6th-7th week of 3α-ethynyl-3β-hydroxyandrostan-17-one oxime treatment.
The study was divided into two series with animals (male Wistar rats), each series included the following groups; Controls treated with vehicle (CV, n=8 per series), Controls treated with 3α-ethynyl-3β-hydroxyandrostan-17-one oxime (C+GAM, n=8 per series), hyperammonemic rats treated with vehicle (HAV, n=8 per series), hyperammonemic rats treated with 3α-ethynyl-3β-hydroxyandrostan-17-one oxime (HA+GAM, n=8 per series). […]
In the beam-walking test rats are trained to traverse an elevated, narrow beam to reach an enclosed escape platform. […] The parameters of motor coordination measured are: footslips (or foot faults) and latency to traverse the beam. […] The number of times the left or right hind paw slip off the beam was recorded for each trial.

hyperammonemic rats [4] = assay: Morris water maze memory test, hyperammonemic rats (Example 9)
Experimental: as §2, §1, §3
The test was carried out as described by Monfort et al. (European Journal of Neuroscience, 2007, 25, 2103-2111) using a circular pool (160 cm diameter, 40 cm height) arbitrarily divided into four quadrants. After pre-training, the rats were trained to learn the fixed location of the invisible platform over 3 days. Training involved placing the rat into the pool facing the wall in one of the three quadrants lacking the platform. A different starting point was randomly used on each trial. Training consisted of three swims per day. Each animal was allowed a maximum of 120 seconds to find the platform and was left for 20 seconds on the platform. […] The time needed to find the hidden platform was recorded manually and used as a measure of learning of the task.
Spatial memory was assessed 24 hours later by removing the platform and measuring the time spent by the rat in the quadrant where the platform was.

## C#C[C@]1(O)CC[C@@]2(C)C(CC[C@@H]3[C@@H]2CC[C@]2(C)/C(=N\O)CC[C@@H]32)C1 (stereo partly drawn) [3α-ethynyl-3β-hydroxyandrostan-17-one oxime]
Blood ammonia; 0.7 mg/Kg
  Blood ammonia: 302 ± 30 µM
Blood ammonia; 2.5 mg/Kg
  Blood ammonia: 294 ± 37 µM
Hyperammonemic rats [1]; 3 mg/kg
  Number of working errors in days 1-2, radial maze: 6.5±2.8 errors
Hyperammonemic rats [1]; 10 mg/kg
  Number of working errors in days 1-2, radial maze: 8.8±1.9 errors
Hyperammonemic rats [1]; 20 mg/kg
  Number of working errors in days 1-2, radial maze: 12±2 errors
Hyperammonemic rats [2]
  Spatial memory in the Morris water maze (time to find the platform): completely restored spatial memory
Hyperammonemic rats [3]
  Motor in-coordination in the beam-walking test (slips): completely reversed motor in-coordination
Hyperammonemic rats [4]; 3 mg/kg
  Percentage of time spent in the correct quadrant, Morris water maze memory test: 41±4%
Hyperammonemic rats [4]; 10 mg/kg
  Percentage of time spent in the correct quadrant, Morris water maze memory test: 42±5%
Hyperammonemic rats [4]; 20 mg/kg
  Percentage of time spent in the correct quadrant, Morris water maze memory test: 38±3%
